Source: patent US20260262643A1, “HERBICIDAL BENZOXAZINES” (FMC CORPORATION, priority 2022, published 2026)
Where two headings read alike, the source gives them in different places.

Legend:
[1] = tested on: horseweed; test: Test A postemergence; type: in vivo, Erigeron canadensis; conditions: postemergence, 10 days; for pest or weed control at 125 g/ha / pest or weed control at 500 g/ha: Erigeron canadensis, post-emergence, 240 h, 0 to 100 scale (0 no effect, 100 complete control); for pest or weed control at 125 g/ha: read-out: Horseweed plant response rating; for pest or weed control at 500 g/ha: 500 g ai/ha, visual injury, read-out: Plant response rating, Horseweed
Method in brief: (§1)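 Visual injury ratings on a 0–100 scale (100 = complete control) versus untreated controls, taken 10 days after treatment in greenhouse. Preemergence: directed soil spray onto seeded loam/sand. Postemergence: foliar application at one- to two-leaf stage, plants 2–10 cm. Formulation: non-phytotoxic solvent plus surfactant.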

[2] = tested on: ryegrass, Italian; test: Test A preemergence; type: in vivo, Lolium multiflorum; conditions: for pest or weed control at 125 g/ha / pest or weed control at 500 g/ha: Lolium multiflorum, pre-emergence, 240 h, read-out: Plant response rating, Ryegrass, Italian; for pest or weed control at 500 g/ha: 500 g ai/ha
Method in brief: as §1

[3] = tested on: oat, wild; test: Test A preemergence; type: in vivo, Avena fatua; conditions: for pest or weed control at 125 g/ha / pest or weed control at 500 g/ha: Avena fatua, pre-emergence, 240 h, read-out: Plant response rating, Oat, Wild; for pest or weed control at 125 g/ha / Plant response rating, Oat, Wild: 0 to 100 scale; for pest or weed control at 500 g/ha: 0 to 100 scale (0 no effect, 100 complete control), 10 days
Method in brief: as §1

[4] = tested on: wheat; test: Test A preemergence; type: in vivo, Triticum aestivum; conditions: for plant injury at 125 g/ha / plant injury at 500 g/ha: Triticum aestivum, pre-emergence, 240 h, read-out: Plant response rating, Wheat; for plant injury at 500 g/ha: 500 g ai/ha
Method in brief: as §1

[5] = tested on: corn; test: Test A postemergence; type: in vivo, Zea mays; conditions: postemergence, 10 days; for plant injury at 125 g/ha / Corn plant response rating (crop injury, 0 = no effect, 100 = complete kill) at 500 g/ha: Zea mays, post-emergence, 240 h, 0 to 100 scale (0 no effect, 100 complete control); for plant injury at 125 g/ha: read-out: Corn plant response rating; for Corn plant response rating (crop injury, 0 = no effect, 100 = complete kill) at 500 g/ha: 500 g ai/ha, visual injury
Method in brief: as §1

[6] = tested on: rice; test: Test B flooded paddy test; type: in vivo, Oryza sativa; conditions: Oryza sativa, 312 h; 250 g ai/ha, Flood, 13 days, 0 to 100 scale (0 no effect, 100 complete control); read-out: Plant response rating, Rice
Method in brief: (§2)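 Species grown to 2-leaf stage; pots flooded 3 cm above soil and compound applied directly to paddy water, depth maintained throughout. After 13 days in greenhouse, plants visually rated against controls on 0–100 scale (0 no effect, 100 complete control); dash means no result.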

[7] = tested on: pigweed, palmer; test: Test A preemergence; type: in vivo, Amaranthus palmeri; conditions: for pest or weed control at 125 g/ha / pest or weed control at 500 g/ha: Amaranthus palmeri, pre-emergence, 240 h, read-out: Plant response rating, Pigweed, Palmer; for pest or weed control at 500 g/ha: 500 g ai/ha
Method in brief: as §1

[8] = tested on: corn; test: Test A preemergence; type: in vivo, Zea mays; conditions: for Corn plant response rating (crop injury, 0 = no effect, 100 = complete kill) at 125 g/ha / Corn plant response rating (crop injury, 0 = no effect, 100 = complete kill) at 500 g/ha: Zea mays, pre-emergence, 240 h; for Corn plant response rating (crop injury, 0 = no effect, 100 = complete kill) at 500 g/ha: 500 g ai/ha
Method in brief: as §1

[9] = tested on: ducksalad; test: Test B flooded paddy test; type: in vivo, Heteranthera limosa; conditions: 250 g ai/ha, Flood, 13 days, 0 to 100 scale (0 no effect, 100 complete control); for pest or weed control at 250 g/ha: Heteranthera limosa, 312 h, read-out: Plant response rating, Ducksalad
Method in brief: as §2

[10] = tested on: ragweed; test: Test A preemergence; type: in vivo, Ambrosia artemisiifolia; conditions: for pest or weed control at 125 g/ha / pest or weed control at 500 g/ha: Ambrosia artemisiifolia, pre-emergence, 240 h, read-out: Plant response rating, Ragweed; for pest or weed control at 500 g/ha: 500 g ai/ha
Method in brief: as §1

[11] = tested on: barnyardgrass; test: Test B flooded paddy test; type: in vivo, Echinochloa crus-galli; conditions: 250 g ai/ha, Flood, 13 days, 0 to 100 scale (0 no effect, 100 complete control); for pest or weed control at 250 g/ha: Echinochloa crus-galli, 312 h, read-out: Plant response rating, Barnyardgrass
Method in brief: as §2

[12] = tested on: soybean; test: Test A postemergence; type: in vivo, Glycine max; conditions: postemergence, 10 days; for plant injury at 125 g/ha / plant injury at 500 g/ha: Glycine max, post-emergence, 240 h, 0 to 100 scale (0 no effect, 100 complete control); for plant injury at 125 g/ha: read-out: Soybean plant response rating; for plant injury at 500 g/ha: 500 g ai/ha, visual injury, read-out: Plant response rating, Soybean
Method in brief: as §1

[13] = tested on: kochia; test: Test A preemergence; type: in vivo, Bassia scoparia; conditions: for pest or weed control at 125 g/ha / pest or weed control at 500 g/ha: Bassia scoparia, pre-emergence, 240 h, read-out: Plant response rating, Kochia; for pest or weed control at 500 g/ha: 500 g ai/ha
Method in brief: as §1

[14] = tested on: kochia; test: Test A postemergence; type: in vivo, Bassia scoparia; conditions: postemergence, 10 days; for pest or weed control at 125 g/ha / pest or weed control at 500 g/ha: Bassia scoparia, post-emergence, 240 h, 0 to 100 scale (0 no effect, 100 complete control); for pest or weed control at 125 g/ha: read-out: Kochia plant response rating; for pest or weed control at 500 g/ha: 500 g ai/ha, visual injury, read-out: Plant response rating, Kochia
Method in brief: as §1

[15] = 125 g ai/ha, visual injury after 10 days, 0 to 100 scale, 0 is no effect, 100 is complete control
[16] = 0 to 100 scale (0 no effect, 100 complete control), 10 days
[17] = 125 g ai/ha, visual injury after 10 days, 0 is no effect, 100 is complete control
[18] = 125 g ai/ha, 0 to 100 scale, 0 no effect, 100 complete control
[19] = visual injury after 10 days, 0 to 100 scale, 0 is no effect, 100 is complete control

| Structure (SMILES) | pest or weed control at 125 g/ha ([1]; 125 g ai/ha) [%] | pest or weed control at 500 g/ha [1] [%] | pest or weed control at 125 g/ha [2, 15] [%] | pest or weed control at 500 g/ha [2, 16] [%] | pest or weed control at 125 g/ha [3, 17] [%] | pest or weed control at 500 g/ha ([3]; 500 g ai/ha) [%] | plant injury at 125 g/ha [4, 15] [%] | plant injury at 500 g/ha [4, 16] [%] | plant injury at 125 g/ha ([5]; 125 g ai/ha) [%] | Corn plant response rating (crop injury, 0 = no effect, 100 = complete kill) at 500 g/ha [5] [%] | plant injury at 250 g/ha [6] [%] | pest or weed control at 125 g/ha [7, 15] [%] | pest or weed control at 500 g/ha [7, 16] [%] | Corn plant response rating (crop injury, 0 = no effect, 100 = complete kill) at 125 g/ha [8, 15] [%] | Corn plant response rating (crop injury, 0 = no effect, 100 = complete kill) at 500 g/ha [8, 16] [%] | pest or weed control at 250 g/ha [9] [%] | pest or weed control at 125 g/ha [10, 15] [%] | pest or weed control at 500 g/ha [10, 16] [%] | plant injury at 500 g/ha [12] [%] | pest or weed control at 500 g/ha [14] [%] | also measured |
| --- | --- | --- | --- | --- | --- | --- | --- | --- | --- | --- | --- | --- | --- | --- | --- | --- | --- | --- | --- | --- | --- |
| COCc1ncn(-c2cccc(C(=O)N3C[C@H](C)Oc4c(C)cccc43)c2)n1 [Compound 101, [(2S)-2,3-Dihydro-2,8-dimethyl-4H-1,4-benzoxazin-4-yl][3-[3-(methoxymethyl)-1H-1,2,4-triazol-1-yl]phenyl]methanone] | 0 | 30 | 80 | 90 | 40 | 90 | 0 | 50 | 70 | 80 | 0 | 90 | 100 | 0 | 60 | 55 | 0 | 20 | 100 | 80 | pest or weed control at 250 g/ha [11]: 15%; plant injury at 125 g/ha ([12]; 125 g ai/ha): 70%; pest or weed control at 125 g/ha [13, 15]: 20%; pest or weed control at 500 g/ha [13, 16]: 90%; pest or weed control at 125 g/ha ([14]; 125 g ai/ha): 70% |
| Cc1cccc2c1O[C@@H](C)CN2C(=O)c1cccc(-n2cnc(C3CCCC3)n2)c1 [Compound 80, [3-(3-Cyclopentyl-1H-1,2,4-triazol-1-yl)phenyl][(2S)-2,3-dihydro-2,8-dimethyl-4H-1,4-benzoxazin-4-yl]methanone] | 0 | 0 | 90 | 100 | 0 | 10 | 0 | 10 | 10 | 20 | 0 | 10 | 80 | 0 | 20 | 0 | 0 | 0 | 100 | 70 | pest or weed control at 250 g/ha [11]: 0%; plant injury at 125 g/ha ([12]; 125 g ai/ha): 70%; pest or weed control at 125 g/ha [13, 15]: 10%; pest or weed control at 500 g/ha [13, 16]: 80%; pest or weed control at 125 g/ha ([14]; 125 g ai/ha): 40% |
| CC(C)c1ncn(-c2cc(C(=O)N3C[C@H](C)Oc4c(Cl)cccc43)c3ccccc3c2)n1 [Compound 145] | – | 0 | – | – | – | – | – | – | – | 20 | 0 | – | – | – | – | – | – | – | 100 | 80 | Horseweed plant response rating [1, 18]: 0; Plant response rating, Ryegrass, Italian ([2]; 125 g ai/ha, 0 to 100 scale): 40; pest or weed control at 500 g/ha [2, 19]: 90%; Plant response rating, Oat, Wild ([3]; 125 g ai/ha): 0; Plant response rating, Oat, Wild ([3]; 500 g ai/ha, visual injury after 10 days, 0 is no effect, 100 is complete control): 50; Plant response rating, Wheat ([4]; 125 g ai/ha, 0 to 100 scale): 0; plant injury at 500 g/ha [4, 19]: 0%; Corn plant response rating [5, 18]: 10; Plant response rating, Pigweed, Palmer ([7]; 125 g ai/ha, 0 to 100 scale): 80; pest or weed control at 500 g/ha [7, 19]: 100%; Plant response rating, Corn ([8]; 125 g ai/ha, 0 to 100 scale): 0; Corn plant response rating (crop injury, 0 = no effect, 100 = complete kill) at 500 g/ha [8, 19]: 0%; Plant response rating, Ducksalad [9]: 40; Plant response rating, Ragweed ([10]; 125 g ai/ha, 0 to 100 scale): 0; pest or weed control at 500 g/ha [10, 19]: 0%; Plant response rating, Barnyardgrass [11]: 45; Soybean plant response rating [12, 18]: 40; Plant response rating, Kochia ([13]; 125 g ai/ha, 0 to 100 scale): 70; pest or weed control at 500 g/ha [13, 19]: 50%; Kochia plant response rating [14, 18]: 70 |
